# Source: patent US11761045B2, “Splice variants associated with neomorphic SF3B1 mutants” (Eisai R&D Management Co., Ltd., priority 2015, dated 2023)
# Molecular target: SF3B1^K700E (Homo sapiens, UniProt O75533+Q7RTV0, K700E)
# Test: In vitro splicing assay (IVS), Ad2 pre-mRNA substrate, nuclear extracts
# Type: biochemical
# Set-up: expressed in transfected cells; host or cells: nuclear extract of 293F cells transfected with pFLAG-CMV-2-SF3B1 K700E (the same assay was also run with Nalm-6 SF3B1 K700E nuclear extract)
# Conditions: nuclear extracts from Nalm-6 SF3B1^K700E cells or 293F cells expressing Flag-tag SF3B1^K700E
# Method: E7107 is a small-molecule compound that inhibits splicing by targeting the U2 snRNP-associated complex SF3B (Kotake, Y. et al. “Splicing factor SF3b as a target of the antitumor natural product pladienolide.” Nat Chem Biol 3, 570-575, doi:10.1038/nchembio.2007.16 [2007]).
# Nuclear extracts were prepared from 293F cells transfected with pFLAG-CMV-2-SF3B1 plasmids, or from isogenic Nalm-6 cells (SBH Sciences). The plasmids were generated by cloning the mxSF3B1 gene into the HindIII and KpnI sites of pFLAG-CMV2 (Sigma), and the mutations mxSF3B1^K700E, mxsF3B1^R1074H and mxSF3B1^K700E-R1074H were introduced using […]. Cell pellets were resuspended in hypotonic buffer (10 mM HEPES pH 7.9, 1.5 mM MgCl2, 10 mM KCl, 0.2 mM PMSF, and 0.5 mM DTT; for Nalm-6 cells, 40 mM KCl was used). The suspension was brought up to a total of five packed cell volumes (PCV). After centrifugation, the supernatant was discarded, and the cells were brought up to 3 PCV with hypotonic buffer, and incubated on ice for 10 minutes. Cells were lysed using a dounce homogenizer and then centrifuged. […] Protein concentration was determined using NanoDrop 8000 UV-Vis spectrophotometer (Thermo Scientific). […]
smiles,measurement,value
CC[C@H](O)[C@@H](C)[C@H]1O[C@@H]1C[C@@](C)(O)/C=C/C=C(\C)[C@H]1OC(=O)C[C@H](O)CC[C@@](C)(O)[C@@H](OC(=O)N2CCN(C3CCCCCC3)CC2)/C=C/[C@@H]1C [Compound E7107],inhibition of splicing of Ad2 pre-mRNA in nuclear extracts,able to inhibit splicing
